Read-outs that look alike come from different tables or passages of the source.

For orientation: EC50 means the concentration giving half of the maximal effect. A word on the IC50: it is the concentration needed to halve the response being measured.

For experiment [1], the target named is T1, human Kv4.3 (Homo sapiens, UniProt Q9UK17).
T1 construct: expressed in transfected cells; host or cells: transgenic C. elegans strain UG1755 (N2 injected with plasmid pGV8, integrated array)
T1 sequence (Q9UK17 1-655): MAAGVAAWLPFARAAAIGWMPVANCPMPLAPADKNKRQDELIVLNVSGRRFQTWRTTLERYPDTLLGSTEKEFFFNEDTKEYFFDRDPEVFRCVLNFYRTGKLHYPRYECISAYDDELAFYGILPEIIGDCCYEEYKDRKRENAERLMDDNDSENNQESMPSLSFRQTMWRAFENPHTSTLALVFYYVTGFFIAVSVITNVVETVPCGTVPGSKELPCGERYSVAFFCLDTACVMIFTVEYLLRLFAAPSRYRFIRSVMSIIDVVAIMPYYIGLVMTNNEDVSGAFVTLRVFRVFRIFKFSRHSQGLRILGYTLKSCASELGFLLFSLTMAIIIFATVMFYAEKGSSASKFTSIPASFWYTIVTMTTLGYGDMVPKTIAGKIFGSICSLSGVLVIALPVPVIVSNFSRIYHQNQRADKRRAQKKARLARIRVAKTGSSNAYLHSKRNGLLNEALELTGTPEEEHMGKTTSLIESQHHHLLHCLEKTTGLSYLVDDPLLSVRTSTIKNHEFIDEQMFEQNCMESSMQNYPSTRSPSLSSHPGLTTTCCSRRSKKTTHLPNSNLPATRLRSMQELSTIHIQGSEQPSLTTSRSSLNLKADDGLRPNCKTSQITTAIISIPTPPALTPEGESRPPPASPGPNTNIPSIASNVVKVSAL
The experiment can be described thus: C. elegans based high-throughput screen for Kv4.3 modulators (pharynx pumping, Calcein AM uptake), transgenic strain UG1755. The experiment is classed as in vivo. To be noted: for Ratio N2/Kv4.3: EC50 on N2 divided by EC50 on the Kv4.3 expressing strain, cut-off 1.8; for EC50: transgenic strain UG1755 expressing human Kv4.3, read-out: EC50 (μM) Kv4.3 worm. The source says: A C. elegans based high-throughput screen for Kv4.3 modulators has been used to establish an in vivo SAR (structure-activity relationships: the effect of chemical structure on biological activity) on Kv4.3 for the compounds according to the present invention.
This assay has employed a stable transgenic C. elegans strain that functionally expressed human Kv4.3 in the pharynx and a visible selection GFP maker in body-wall muscle.
The pharynx is the feeding organ of C. elegans and contracts rhythmically 3-4 times per second. The pharynx contraction is controlled by the nervous system via action potentials similar to the human myocyte and can thus be used to study human ion channel physiology in vivo in C. elegans.
Introducing the human Kv4.3 channel into the C. elegans pharynx influences the C. elegans action potential in a characteristic fashion. The additional number of potassium channels increases potassium ion efflux, enhances re-polarization and thereby shortens the action potential duration. […] The shortened action potentials of the C. elegans pharynx resulting from expression of human Kv4.3, changes the pharynx contraction-relaxation cycle and consequently reduces the pumping/feeding in these transgenic animals. This change of pumping is an end-point amenable to high-throughput screening technology. The pumping end-point can be technically translated into a high-throughput read-out by the use of a pro-fluorescent dye. The pro-fluorescent dye is taken up by C. elegans depending on its pumping activity and converted into a fluorescent dye by enzymes located in its intestines. After a defined incubation period, the change of fluorescence intensity in the intestine can be measured with a plate reader.
(§1) The screening of the compounds according to the present invention has been performed in the C. elegans based high-throughput screen for Kv4.3 modulators described above. The method for testing the activity on human Kv4.3 of the compounds according to the invention with C. elegans strains expressing human Kv4.3 for their activity is the same as the method described in WO 03/097682. The method for testing the compounds on wild-type C. elegans strains not expressing human Kv4.3 is the same as the method described in WO 00/63427. Briefly, UG1755 animals have been grown in large numbers and staged young adults (no or only few eggs inside the uterus) have been harvested on the day of screening. Approximately 125 animals in 80 μl buffer have been dispensed per well of a “U shaped 96-well compound plate The compound plate contained already compound material at a final concentration of 30 μM in 0.3% DMSO. After one hour incubation 10 μl of the fluorescent label Calcein AM (CAM) have been added to achieve a final concentration of 5 μM CAM and 0.8% DMSO. After another four hours of incubation at 20° C., the drinking of C. elegans animals (or the “reaction 8 measured by the uptake of CAM) has been stopped by adding 10 μl of a 60 μM ivermectin solution. The fluorescence intensity (counts per second) has been measured 40 minutes after adding ivermectin with the Wallac plate reader at a wavelength of 535 nm (after excitation at 485 nm).
The active compounds have been identified and confirmed by dose-response analysis. An EC50 has been calculated and the results are listed under Table 3. Dose-response curves have been obtained at concentrations of 30 μM. EC50 has been calculated using XLfit 2.09 software package.

The target in experiment [2] is T2, human Kv4.3/KChIP2.2 potassium channel (Homo sapiens, UniProt Q9UK17).
T2 construct: expressed in transfected cells
T2 sequence (Q9UK17 1-655): T1 sequence (Q9UK17 1-655)
The experiment in a line: Whole cell patch clamp, CHO-K1 cells stably expressing human Kv4.3/KChIP2.2. In kind it is cell-based. To be noted: Kv4.3 mediated current, charge; patch clamp; read-out: Kv4.3 charge IC50.

The subject of experiment [3] is C. elegans wild-type strain N2. The experiment in a line: Same C. elegans pumping assay format using wild-type strain N2. The experiment is classed as in vivo. The settings on record: read-out: EC50 (μM) Wild type worm N2.
Source text: as §1
These compounds have been also tested in the same assay format using a C. elegans wild-type strain N2 and the corresponding EC50 has been calculated. The ratio of the EC50s obtained for a compound on the two strains (transgenic expressing human Kv4.3 and wild-type) gives an indication on whether said compound is acting on human Kv4.3. […]

For experiment [4], the target named is T1, human Kv4.3. The experiment can be described thus: Electropharyngeogram (EPG) recording on dissected pharynxes of transgenic C. elegans strain UG1755. On the procedure: The method to describe the construction of a transgenic C. elegans strain expressing human Kv4.3 has been described in WO 03/097682. Briefly, the actual used strain UG1755 has been generated by microinjection into the gonad of a wild-type strain N2 with a mix of 5 ng/μl plasmid pGV8 (human Kv4.3), 20 ng/μl pDW2821 (GFP-marker) and 40 ng/ul genomic C. elegans DNA. Transgenic animals have been isolated and submitted to integration of the extra-chromosomal array into the genome of C. elegans. A line with 50% transmission of the functional expressed human Kv4.3 has been mutagenized with gamma irradiation using a Cobalt source. About 12000 F2 animals have been singled out and their progeny has been screened for the 100% transmission of the GFP marker. Lines with 100% transmission of GFP have been considered as potentially integrated. These lines have been further tested and out-crossed with N2 strain two-times. All lines obtained have been tested for viability, GFP and human Kv4.3 expression. At the end of a selection process, UG1755 was identified as most suitable C. elegans strain amenable to high throughput screening (HTS). […] Briefly, dissected pharynxes of UG1755 C. elegans animals have been prepared and Electropharyngeograms (EPGs) have been recorded using an Axopatch-1D amplifier (Axon instruments). […] The number of ultra short EPGs (10-20 ms) and normal EPGs (100-200 ms) has been analyzed and given as ratio in percentage. […] In addition, standard qRT-PCR confirmed the presence of the human Kv4.3 transgene in UG1755 as well as human Kv4.3 protein has been detected with the human Kv4.3 antibody P 0358 in the pharynx of UG1755 animals.
Introducing the human Kv4.3 channel into the C. elegans pharynx influences the C. elegans action potential in a characteristic fashion. […] The pumping end-point can be technically translated into a high-throughput read-out by the use of a pro-fluorescent dye. […] After a defined incubation period, the change of fluorescence intensity in the intestine can be measured with a plate reader.

As for “2-(4-bromo-phenylamino)-4-methyl-thiazole-5-carboxylic acid (1R,2R)-2-(benzyloxycyclopent-1-yl) amide [Compound 25]”, the “Ratio N2/Kv4.3” value at human Kv4.3 [1] was more than 25. Further, the values for the EC50 (on human Kv4.3 [1]; in experiment [3]) were 10.3 µM and more than 30 µM, respectively. Besides, the IC50 in experiment [2] amounted to 1320 nM.

Take `Nc1ccncc1` [4-aminopyridine]: at human Kv4.3 [4], the “ultra short action potentials of the human Kv4.3 transgenic C. elegans pharynx” value is recorded as “restored to normal action potentials”.

`Cc1nc(Nc2ccc(Br)cc2)sc1C(=O)NCc1ccccc1` [Compound 20, 2-(4-bromo-phenylamino)-4-methyl-thiazole-5-carboxylic acid benzylamide]: at human Kv4.3 [1], the “Ratio N2/Kv4.3” value was more than 2.3 and the EC50 was 25 µM. Also, the IC50 in experiment [2] is 1720 nM. In addition, the EC50 in experiment [3] (Caenorhabditis elegans) was more than 60 µM.

As for `Cc1nc(Nc2ccc(Br)cc2)sc1C(=O)NCc1ccc([N+](=O)[O-])cc1` [Compound 23, 2-(4-bromo-phenylamino)-4-methyl-thiazole-5-carboxylic acid 4-nitro-benzylamide], at human Kv4.3 [1], the “Ratio N2/Kv4.3” value was 2.8 and the EC50 was 14.6 µM. In addition, the IC50 in experiment [2] was 550 nM. In experiment [3] (Caenorhabditis elegans), the EC50 came to 41 µM.

As for `O=C(N[C@@H]1CCC[C@H]1OCc1ccccc1)c1csc(Nc2ccc(Cl)cc2)n1` [Compound 40, 2-(4-chloro-phenylamino)-thiazole-4-carboxylic acid (1R,2R)-2-(benzyloxycyclopent-1-yl) amide], at human Kv4.3 [1], the “Ratio N2/Kv4.3” value is more than 2.5 and the EC50 is 12.1 µM. In addition, the IC50 in experiment [2] came to 3460 nM. The EC50 in experiment [3] is more than 30 µM.

Regarding `O=C(N[C@H]1CCCC[C@@H]1OCc1ccccc1)c1csc(Nc2ccc(Cl)cc2)n1` [Compound 41, 2-(4-chloro-phenylamino)-thiazole-4-carboxylic acid (1S,2S)-2-(benzyloxycyclohex-1-yl) amide], at human Kv4.3 [1], the “Ratio N2/Kv4.3” value is 2.2 and the EC50 is 22 µM. For the same compound, the EC50 in experiment [3] was found to be 48 µM.

As for `CCCN(Cc1ccc([N+](=O)[O-])cc1)C(=O)c1csc(Nc2ccc(Cl)cc2)n1` [Compound 42, 2-(4-chloro-phenylamino)-thiazole-4-carboxylic acid (4-nitro-benzyl)-propyl-amide], at human Kv4.3 [1], the “Ratio N2/Kv4.3” value was 2.0 and the EC50 is 21.4 µM. The EC50 in experiment [3] (Caenorhabditis elegans) is 43 µM.

`Cc1cccc(C)c1Nc1nc(C(=O)N[C@H](C)c2ccc([N+](=O)[O-])cc2)cs1` [Compound 43, 2-(2,6-dimethyl-phenylamino)-thiazole-4-carboxylic acid (R)-1-(4-nitro-phenyl)ethyl amide]: at human Kv4.3 [1], the “Ratio N2/Kv4.3” value is reported as 1.8 and the EC50 is 18.9 µM. Besides, the EC50 in experiment [3] (Caenorhabditis elegans) is 35 µM.

`COC[C@H](Cc1ccccc1)NC(=O)c1csc(Nc2cc(C)cc(C)c2)n1` [Compound 44, 2-(3,5-dimethyl-phenylamino)-thiazole-4-carboxylic acid (S)-(1-methoxymethyl-2-phenyl-ethyl)-amide]: at human Kv4.3 [1], the “Ratio N2/Kv4.3” value is given as 3.5 and the 50% effective concentration (EC50) is 11.5 µM. The EC50 in experiment [3] (Caenorhabditis elegans) stood at 39.5 µM.

For the compound `Cc1cc(C)cc(Nc2nc(C(=O)N[C@@H]3CCC[C@H]3OCc3ccccc3)cs2)c1` [Compound 45, 2-(3,5-dimethyl-phenylamino)-thiazole-4-carboxylic acid (1R,2R)-2-(benzyloxycyclopent-1-yl)-amide], at human Kv4.3 [1], the “Ratio N2/Kv4.3” value is recorded as 28.0 and the EC50 was 1.3 µM. For the same compound, the EC50 in experiment [3] (Caenorhabditis elegans) is 37 µM.

For `Cc1cc(C)cc(Nc2nc(C(=O)N[C@H]3CCCC[C@@H]3OCc3ccccc3)cs2)c1` [Compound 46, 2-(3,5-dimethyl-phenylamino)-thiazole-4-carboxylic acid (1S,2S)-2-(benzyloxycyclohex-1-yl) amide], on human Kv4.3 [1], the “Ratio N2/Kv4.3” value is listed as 2.8 and the EC50 is 14 µM. In addition, the EC50 in experiment [3] (Caenorhabditis elegans) turned out to be 39 µM.

For `O=C(N[C@@H]1CCC[C@H]1OCc1ccccc1)c1csc(Nc2ccccc2)n1` [Compound 48, 2-phenylaminothiazole-4-carboxylic acid (1R,2R)-2-(benzyloxycyclopent-1-yl) amide], at human Kv4.3 [1], the “Ratio N2/Kv4.3” value is recorded as 14.9 and the EC50 was 2 µM. Further, the IC50 in experiment [2] was determined as 2470 nM. Moreover, in experiment [3] (Caenorhabditis elegans), the EC50 came out at 29.8 µM.

`COc1ccc(Cl)cc1Nc1nc(C(=O)N[C@@H]2CCCC[C@H]2OCc2ccccc2)cs1` [Compound 51, 2-(5-chloro-2-methoxy-phenylamino)-thiazole-4-carboxylic acid (1R,2R)-2-(benzyloxycyclohex-1-yl) amide]: on human Kv4.3 [1], the “Ratio N2/Kv4.3” value is reported as more than 1.8 and the EC50 was 17 µM. In addition, the EC50 in experiment [3] (Caenorhabditis elegans) was more than 30 µM.

As for `O=C(NCC1CCCCN1)c1cc(OCC(F)(F)F)ccc1OCC(F)(F)F` (centres unmarked) [Flecainide], on human Kv4.3 [4], the “ultra short action potentials of the human Kv4.3 transgenic C. elegans pharynx” value is reported as “restored to normal action potentials”. In addition, the “After Application of Compound Ratio Ultra short to Normal EPGs in %” value on human Kv4.3 [4] (100 μM Flecainide, strain UG1755, n = 15, before application 83 ± 13) was 53 ± 24%.

The values above are taken from patent US20080125432A1 (Devgen NV, priority 2004, published 2008).
